The text below walks through data of paper PMC3724985, “Isolation, biochemical characterization, and cloning of a bacteriocin from the poultry-associated Staphylococcus aureus strain CH-91” (Applied Microbiology and Biotechnology, 2012).

Data set [1] is described as follows: pH stability, residual activity by radial diffusion assay. The class given is physicochemical. The settings on record: 30 μM, S. lutea ATCC 9341, triplicate. As to the method: To test the pH stability of BacCH91, a water solution of the bacteriocin (final concentration, 30 μM) was evaporated in a vacuum centrifuge and re-dissolved in (a) 100 mM sodium citrate pH 3.0, 4.0, 5.0, and 6.0; […] The solutions were incubated for 3 h at RT, and the residual activity of the bacteriocin was determined using the radial diffusion assay. The temperature stability of BacCH91 (30 μM final concentration) was determined in 50 mM Tris–HCl pH 7.4, 0.15 M NaCl and 50 mM bis-Tris pH 6.4, 0.15 M NaCl. The solutions were incubated for 1, 6, and 24 h at 37, 60, 80, and 99 °C. […] All of the above experiments were performed in triplicate. The final results are presented as means ± SD.

Another data set deals with StpC. In words: Influence of StpC on biosynthesis and stability of BacCH91 in S. aureus CH-91 culture (E-64, HPLC). The settings on record: S. aureus CH-91 in TSB with or without E-64 (0.01, 0.1, 1.0 mM); samples at 5, 10, 24 h; HPLC peak area at 220 nm. The protocol:
S. aureus CH-91 was cultured at 37 °C in TSB supplemented with the cysteine peptidase inhibitor E-64 (1-[N-[(L-3-trans-carboxyoxirane-2-carbonyl)-L-leucyl] amino]-4-guanidinobutane; Sigma) at final concentrations of 1.0, 0.1, and 0.01 mM. Aliquots were removed at 5, 10, and 24 h, and the bacteria-free supernatants were obtained by centrifugation.
To estimate the level of BacCH91, the collected supernatants were acidified with TFA (1 % final concentration, v/v) and filtered (0.45 μm filter). Aliquots (30 μl) were analyzed using HPLC (Kromasil C4 column, 250 × 4.6 mm; Supelco) and the same buffers as those used during the purification procedure. The column was flushed for 5 min following injection at a constant concentration of 34 % B. A linear gradient from 34 to 100 % B was then applied over 10 min at 1 ml/min. Under these conditions, BacCH91 was detected at 220 nm as a single peak eluting with a retention time of 14.6 min. The relative amount of bacteriocin was calculated as the area under the peak.

Take `C/C=C(\NC(=O)[C@H](CCCCN)NC(=O)CNC(=O)[C@@H]1CS[C@@H](C)[C@@H](NC(=O)[C@@H]2CSC[C@@H](NC(=O)/C(=C/C)NC(=O)[C@@H](N)[C@@H](C)CC)C(=O)N[C@@H](Cc3ccccc3)C(=O)N[C@@H]([C@@H](C)CC)C(=O)NCC(=O)N2)C(=O)N2CCC[C@H]2C(=O)NCC(=O)N1)C(=O)NCC(=O)N[C@@H]1CSC[C@@H]2NC(=O)[C@H](Cc3ccccc3)NC(=O)[C@@H](CS/C=C\NC2=O)NC(=O)[C@H](CC(N)=O)NC(=O)[C@H](Cc2ccccc2)NC1=O` [BacCH91]: in data set [1] (100 mM 3-cyclohexylamino-1-propanesulphonic acid-NaOH pH 11.0, 3 h at RT), the “residual bactericidal activity after incubation at pH 11.0” value is reported as “complete inactivation”. For the same compound, in data set [1] (100 mM Tris–HCl pH 7.0, 8.0, 9.0 and 100 mM CAPS-NaOH pH 10.0, 11.0, 3 h at RT), the “residual bactericidal activity after incubation at pH 7.0 and higher” value is recorded as “gradual loss of bactericidal activity”. The “residual bactericidal activity after incubation at pH 3.0–6.0” value in data set [1] (100 mM sodium citrate pH 3.0, 4.0, 5.0, 6.0, 3 h at RT) is “retained full bactericidal activity”. Further, in the data set with StpC, the “effect of StpC on the stability of the lantibiotic in culture” value is “does not affect the stability”.
